Experimental data reported in patent US20180282279A1, “Pantothenamide Analogues” (Radboud Universitair Medisch Centrum, priority 2014, published 2018).
In brackets after ≈: the same amount, converted by molar mass. Like-named read-outs stand apart in the source and are kept apart here.

Experiments:
[1] = test system: Staphylococcus epidermidis; test: Bacterial growth assay and MIC determination, S. epidermidis; type: cell-based; details: for MIC: Staphylococcus epidermidis
Protocol: (§1) Strains of Escherichia coli, Staphylococcus aureus and Staphylococcus epidermidis, were grown overnight in 1% Bacto tryptone medium (BD, Sparks, Md.). Streptococcus pyogenes was grown overnight in Bacto Todd Hewitt Broth medium (BD, Sparks, Md.). Cultures were then diluted 1:1,000 in fresh assay medium supplemented with or without 20% fetal bovine serum (FBS; HyClone, Celbio, Logan, Utah) and added to 96-well sterile enzyme-linked immunosorbent assay (ELISA) plates (100 μl per well). The compounds to be tested were diluted in the medium without serum and added to the bacteria (100 μl per well). Plates were incubated at 37° C., and bacterial growth was monitored over time by reading the optical density at 490 nm using a microplate reader (model 450; Bio-Rad Laboratories Inc., Hercules, Calif.). Streptococcus pneumoniae strains were grown to mid-log phase (OD620 of 0.3) and stored in 15% glycerol at […] till further use. Minimal inhibitory concentration (MIC) of antibiotics was determined according to standard procedures. Bacteria were diluted 10-fold in Mueller-Hinton medium (BD, Sparks, Md.) and added to 96-well sterile ELISA plates (150 μl per well). The compounds to be tested were diluted in the medium without serum and added to the bacteria (150 μl per well). Plates were incubated overnight at 37° C. in 5% CO2. The MIC was defined as the lowest concentration of compound at which no growth was visible with the naked eye.

Staphylococcus aureus = test: Bacterial growth assay and MIC determination, S. aureus; type: cell-based; details: for antibiotic activity when tested in the presence of serum: 10% serum; for MIC: Staphylococcus aureus
Protocol: as §1

Streptococcus pneumoniae = test: MIC determination, S. pneumoniae; type: cell-based; details: for MIC: Streptococcus pneumoniae
Protocol: Streptococcus pneumoniae strains were grown to mid-log phase (OD620 of 0.3) and stored in 15% glycerol at […] till further use. Minimal inhibitory concentration (MIC) of antibiotics was determined according to standard procedures. Bacteria were diluted 10-fold in Mueller-Hinton medium (BD, Sparks, Md.) and added to 96-well sterile ELISA plates (150 μl per well). The compounds to be tested were diluted in the medium without serum and added to the bacteria (150 μl per well). Plates were incubated overnight at 37° C. in 5% CO2. The MIC was defined as the lowest concentration of compound at which no growth was visible with the naked eye.

Streptococcus pyogenes = test: Bacterial growth assay and MIC determination, S. pyogenes; type: cell-based; details: Streptococcus pyogenes; S. pyogenes, serum −; read-out: MIC
Protocol: as §1

Escherichia coli = test: Bacterial growth assay and MIC determination, E. coli; type: cell-based; details: Escherichia coli, serum −, read-out: MIC
Protocol: as §1

[2] = test system: Plasmodium falciparum NF54 parasites; test: P. falciparum asexual blood stage replication assay (SYBR Green); type: cell-based; details: NF54, 10% human serum, 72 incubation
Protocol: Compounds were tested on their ability to inhibit replication of the human malaria parasite Plasmodium falciparum. To this end, Plasmodium falciparum NF54 parasites were cultured in RPMI1640 medium supplemented with 367 μM hypoxanthine, 25 mM HEPES, 25 mM sodiumbicarbonate and 10% human type A serum in an automated large-scale culture system as described before (Transactions of the Royal Society of Tropical Medicine and Hygiene, 1982. 76: p. 812-818). Compounds were diluted in DMSO and subsequently in culture medium to reach a DMSO concentration of 0.2%. 50 μl of diluted compound was transferred to a black 96 well plate. A culture of P. falciparum strain NF54 malaria parasites was diluted to a parasitaemia of 0.5% and a hematocrit of 3%. 50 μl of this diluted culture was added to each well in the 96 well plate._The outermost wells of the plate were filled with sterile water to prevent evaporation. The established antimalarial dihydroartemisinin (DHA) in DMSO acted as a positive control (MIN signal), and 0.1% DMSO acted as a negative control (MAX signal). The plates were incubated for 72 at 37° C., 3% 02, 5% CO2, 93% N2. Changes in parasite replication relative to the controls were monitored using the DNA-marker SYBR Green as described previously (Antimicrob Agents Chemother 48:1803-6). Data were analyzed by logistic regression using the formula: Y=Bottom+(Top-Bottom)/(1+10̂((Log IC50−X)*HillSlope)) and a least squares method to find the best fit.
Using similar methods, IC50 values were determined for a variety of inverted pantothenamides, as listed in table 1 (see section: ‘Detailed description of the invention’)

[3] = Pharmacokinetic study in rats; type: in vivo; details: rat, blood, 50 mg/kg in saline, oral administration
Protocol: To address the question if increased stability would also lead to improved bioavailability in vivo, a pharmacokinetic study was performed. Briefly, the pantothenamides N5-Pan (an antibacterial compound) and CXP18.3-002 (an antimalarial compound), and their corresponding inverted amides CXP18.6-013 and CXP18.6-006 were administered to rats at 50 mg/kg dissolved in saline. Blood samples were collected from 3 rats before the experiment and at 0.25, 0.5, 1, 2, 4, 6, 8, 12 and 24 h. The concentrations of the compounds were analyzed by LC-MS/MS (AB Sciex API-4000 system). Data were analyzed by the Non-compartmental analysis tool of Phoenix WinNonlin (Version 6.3).

[4] = test system: P. falciparum gametocytes; test: microbe, parasite or virus in culture; type: cell-based, Plasmodium falciparum; details: Plasmodium falciparum; 72 hour incubation; read-out: Gametocyte viability (pLDH) IC50
Protocol: Compounds were tested for their ability to affect the viability of gametocytes, the sexually committed blood stages of P. falciparum that underlie transmission to the mosquito vector. To this end, two different assays were performed. The first assay monitored pLDH activity as a measure of viability of gametocytes (J Antimicrob Chemother. 2013 September; 68(9):2048-58). The second assay monitored the ability of gametocytes to form a female gamete by detection of the gamete-specific marker Pfs25. Plasmodium falciparum NF54 parasites were cultured in RPMI1640 medium supplemented with 367 μM hypoxanthine, 25 mM HEPES, 25 mM sodiumbicarbonate and 10% human type A serum in an automated large-scale culture system as described before (Transactions of the Royal Society of Tropical Medicine and Hygiene, 1982. 76: p. 812-818). Cultures were treated with 50 mM N-acetyl-D-glucosamine from day 4 till day 9 to kill asexual parasites. On day 11 gametocytes were isolated by discontinuous 63% Percoll gradient centrifugation. Compounds were diluted in DMSO and subsequently in culture medium to reach a DMSO concentration of 0.2%. To measure the effect of compounds of pLDH activity, gametocytes were seeded at a density of 3.5×10^4 gametocytes per well in a black 384 well plate in 30 μl of culture medium, and 30 μl of diluted compound was added. Following a 72 hour incubation at 37° C., 98% humidity, 93% N2, 4% CO2 and 3% O2, gametocyte viability was measured by a modified plasmodium lactate dehydrogenase assay by using resazurin as a substrate as previously described (Nature, 2013. 504(7479): p. 248-53). Assays were performed in quadruplicate (two different plates with two different gametocyte batches) and all plates included controls MIN (1 μM DHA), MAX (0.1% DMSO) and a serial dilution of reference compound dihydroartemisinin (DHA).

[5] = test system: P. falciparum gametocytes; test: Gametocyte female gametogenesis capacity assay (Pfs25 AlphaLISA); type: cell-based; details: Plasmodium falciparum; 72 hours incubation, Table 3; read-out: Gametocyte gametogenesis capacity (Pfs25) IC50
Protocol: To monitor compound effects on the ability of a gametocyte to form a female gamete, day 11 (stage IV) gametocytes were seeded at a density of 4×10^5 gametocytes per well in a V-bottom plate in 50 μl culture medium. 50 μl of diluted compound was added to the gametocytes (0.1% DMSO final concentration) and plates were incubated for 72 hours at 37° C., 98% humidity, 93% N2, 4% CO2 and 3% O2. Subsequently, gametogenesis was induced by adding xanthurenic acid to a final concentration of 40 μM and plates were incubated for 16 hours at 20° C. Gametes were detected in a homogeneous proximity immunoassay on basis of Pfs25 expression by use of AlphaLISA technology (Perkin Elmer). All steps were performed at 20° C. Gametes were washed twice with PBS, lysed for 15 min in 10 μl 10 mM Tris pH 8.0/1% laurylsarcosyl/1 mM phenylmethanesulfonyl fluoride and combined with 10 μl 5 nM biotinylated mouse anti-Pfs25 monoclonal antibody 32F6244 in a white 384 well optiplate (Perkin Elmer). After 1 hour incubation 15 μl of 33 μg/ml acceptorbeads coated with mouse anti-Pfs25 monoclonal antibody 32F81 were added. After 1 hour incubation, 15 μl 33 μg/ml Streptavidin-conjugated donorbeads were added. Finally, after 1 hour incubation luminescence signals were monitored at the 615 nm emission wavelength following excitation at 680 nm using a fluorometer (Biotek Synergy 2). All compounds were tested in duplicate (24 hr) or triplicate (1 and 72 hr). Controls included MIN (0.1 μM epoxomicin) and MAX (0.1% DMSO). Data were analyzed by logistic regression using the formula: Y=Bottom+(Top−Bottom)/(1+10̂((Log IC50−X)*HillSlope)) and a least squares method to find the best fit.

[6] = S. epidermidis, serum −, read-out: MIC
[7] = S. aureus, serum + (10% serum), read-out: MIC
[8] = S. aureus, serum −, read-out: MIC
[9] = Table 1, most sensitive species S. aureus (SA), read-out: MIC (μg/ml) for most sensitive bacterial species
[10] = S. pneumoniae, serum −, read-out: MIC
[11] = Table 1, most sensitive species S. epidermidis (SE), read-out: MIC (μg/ml) for most sensitive bacterial species

MIC [1, 6] [µg/mL]	MIC (Staphylococcus aureus; [7]) [µg/mL]	MIC (Staphylococcus aureus; [8]) [µg/mL]	MIC (Staphylococcus aureus; [9]) [µg/mL]	MIC (Streptococcus pneumoniae; [10]) [µg/mL]	MIC (Streptococcus pyogenes) [µg/mL]	MIC (Escherichia coli) [µg/mL]	IC50 [2] [µM]	MIC [1, 11] [µg/mL]	IC50 [4] [nM]	IC50 [5] [nM]	SMILES	antibiotic activity when tested in the presence of serum (Staphylococcus aureus; S. aureus)	activity of inverted pantothenamide compared to the parent compound (Streptococcus pneumoniae; S. pneumoniae)	activity of inverted pantothenamide compared to the parent compound ([1]; S. epidermidis)	AUC(0-inf) [3] [ng·h/mL]	Cmax [3] [ng/mL]	Tmax [3] [h]	half-life ([3]; elimination phase) [h]	MIC (Streptococcus pneumoniae; Table 1, S. pneumoniae (SPn), read-out: MIC (μg/ml) for most sensitive bacterial species) [µg/mL]
16 (≈ 50.6 µM)	4	1 (≈ 3.16 µM)	1 (≈ 3.16 µM)	> 32	32 (≈ 101 µM)	> 256	0.34	–	–	–	CCCCCCCC(=O)NCCNC(=O)[C@H](O)C(C)(C)CO [CXP18.6-012]	retained activity	loss of activity	–	–	–	–	–	–
1 (≈ 2.9 µM)	1	1 (≈ 2.9 µM)	1 (≈ 2.9 µM)	> 32	32 (≈ 92.9 µM)	> 256	7.5	1 (≈ 2.9 µM)	–	–	CCCCCCCCCC(=O)NCCNC(=O)[C@H](O)C(C)(C)CO [CXP18.6-014]	retained activity	–	–	–	–	–	–	–
–	–	–	–	–	–	–	0.042	2 (≈ 5.64 µM)	42	17	Cc1ccc(CCC(=O)NCCNC(=O)[C@H](O)C(C)(C)CO)c(F)c1 [CXP18.6-064]	–	–	–	–	–	–	–	–

SMILES	MIC [1, 6] [µg/mL]	MIC (Staphylococcus aureus; [7]) [µg/mL]	MIC (Staphylococcus aureus; [8]) [µg/mL]	MIC (Staphylococcus aureus; [9]) [µg/mL]	MIC (Streptococcus pneumoniae; [10]) [µg/mL]	MIC (Streptococcus pyogenes) [µg/mL]	MIC (Escherichia coli) [µg/mL]	IC50 [2] [µM]	MIC [1, 11] [µg/mL]	IC50 [4] [nM]	IC50 [5] [nM]	antibiotic activity when tested in the presence of serum (Staphylococcus aureus; S. aureus)	activity of inverted pantothenamide compared to the parent compound (Streptococcus pneumoniae; S. pneumoniae)	activity of inverted pantothenamide compared to the parent compound ([1]; S. epidermidis)	AUC(0-inf) [3] [ng·h/mL]	Cmax [3] [ng/mL]	Tmax [3] [h]	half-life ([3]; elimination phase) [h]	MIC (Streptococcus pneumoniae; Table 1, S. pneumoniae (SPn), read-out: MIC (μg/ml) for most sensitive bacterial species) [µg/mL]
CCCCCC(=O)NCCNC(=O)[C@H](O)C(C)(C)CO [CXP18.6-013]	1 (≈ 3.47 µM)	–	32 (≈ 111 µM)	–	4 (≈ 13.9 µM)	2 (≈ 6.94 µM)	> 256	0.63	1 (≈ 3.47 µM)	–	–	–	–	gain of antimicrobial activity	11600	12100	0.33	5.9	4 (≈ 13.9 µM)
